Assay results reported in patent publication US9550752B2, “Triazolinthione derivatives” (priority 2013, dated 2017).
Marks after values point to notes of the source that are not given here.

System: Botrytis cinerea
Experiment: In vivo preventive test on Botrytis cinerea (grey mould)
Conditions: 100 ppm of active ingredient; gherkin plants, preventive spray; evaluated 4 to 5 days after inoculation
Procedure: (§1) The young plants of gherkin are treated by spraying the active ingredient prepared as described above. Control plants are treated only with an aqueous solution of acetone/Dimethyl sulfoxide/tween®. After 24 hours, the plants are contaminated by spraying the leaves with an aqueous suspension of Botrytis cinerea spores.
Work on `OC(Cc1ccncc1Cl)(Cn1ncnc1S)C1(F)CC1` (stereo not shown) [Example I-13] yielded a biological efficacy of at least 90%.

System: not listed separately
Experiment: physchem
Conditions: pH 2.7
Work on `O=C(Cc1cccnc1Cl)C1(Cl)CC1` [Example V-3, 1-(1-chlorocyclopropyl)-2-(2-chloropyridin-3-yl)ethanone] yielded a chromatographic logP of 2.2.

Same assay, conditions: pH 7.8
Work on `O=C(Cc1cccnc1Cl)C1(Cl)CC1` [Example V-3, 1-(1-chlorocyclopropyl)-2-(2-chloropyridin-3-yl)ethanone] yielded a chromatographic logP of 2.21.

Same assay, conditions: reversed phase HPLC column, pH 2.7
In the case of `OC(Cc1ccncc1Cl)(Cn1cncn1)C1(Cl)CC1` (stereo not shown) [XXI-5, 2-(1-chlorocyclopropyl)-1-(3-chloropyridin-4-yl)-3-(1H-1,2,4-triazol-1-yl)propan-2-ol], the chromatographic logP is reported as 1.67.
`OC(Cc1ccncc1Cl)(Cn1nc[nH]c1=S)C1(Cl)CC1` (stereo not shown) [Example I-3, 2-[2-(1-chlorocyclopropyl)-3-(3-chloropyridin-4-yl)-2-hydroxypropyl]-2,4-dihydro-3H-1,2,4-triazole-3-thione] gave a chromatographic logP of 2.01.

Same assay, conditions: reversed phase HPLC column, pH 7.8
With `OC(Cc1ccncc1Cl)(Cn1cncn1)C1(Cl)CC1` (stereo not shown) [XXI-5, 2-(1-chlorocyclopropyl)-1-(3-chloropyridin-4-yl)-3-(1H-1,2,4-triazol-1-yl)propan-2-ol] the chromatographic logP was 1.75.

System: Pyricularia oryzae
Experiment: not given
Assay type: in vivo
Conditions: 500 ppm of active ingredient; rice, preventive; evaluated 8 days after inoculation
Compound `OC(Cc1cccnc1Cl)(Cn1ncnc1S)C1(F)CC1` (stereo not shown) [Example I-11] has a biological efficacy of at least 90%.

System: not given
Experiment: not given
Conditions: method [a]: pH 2.7, 0.1% formic acid in water/acetonitrile; Table 1, formula (I)
For `OC(Cc1cc(Cl)nc(Cl)c1)(Cn1ncnc1S)C1(Cl)CC1` (stereo not shown) [Example I-8], the LogP was 3.10^[a].

Same assay, conditions: method [a]: pH 2.7; Table 3, formula (V)
For `CC(C)(C)C(=O)Cc1cccnc1Cl` [Example V-16], the LogP was 2.34^[a].
With `CC(C)(C)C(=O)Cc1ccc(Cl)nc1` [Example V-15] the LogP was 2.47^[a].
With `CCC(C)(CC)C(=O)Cc1ccncc1Cl` [Example V-17] the LogP was 3.04^[a].

Same assay, conditions: method [a]: pH 2.7; Table 4, formula (XII)
For `CC(C)(C)C1(Cc2ccnc(Cl)c2)CO1` (stereo not shown) [XII-22], the LogP was 3.06^[a].
For `CC(C)(C)C1(Cc2ccnc(Cl)c2F)CO1` (stereo not shown) [XII-46], the LogP was 3.37^[a].
For `CC(C)(C)C1(Cc2cc(F)ncc2Cl)CO1` (stereo not shown) [XII-38], the LogP was 3.65^[a].
For `CCC(C)(C)C1(Cc2c(Cl)cncc2Cl)CO1` (stereo not shown) [XII-54], the LogP was 4.41^[a].
With `CC(C)(C)C1(Cc2c(Cl)cncc2Cl)CO1` (stereo not shown) [XII-52] the LogP was 3.89^[a].
With `CC(C)C(C)(C)C1(Cc2ccncc2Cl)CO1` (stereo not shown) [XII-30] the LogP was 3.75^[a].

Same assay, conditions: pH 2.7
For `OC(Cc1cccnc1Cl)(Cn1ncnc1S)C1(F)CC1` (stereo not shown) [Example I-11], the LogP was 1.76^[a].
For `OC(Cc1ccncc1Cl)(Cn1ncnc1S)C1(F)CC1` (stereo not shown) [Example I-13], the LogP was 1.63^[a].
With `OC(Cc1cccc(Cl)c1)(Cc1ccnc(Cl)c1F)Cn1cncn1` (stereo not shown) [XXI-93] the LogP was 2.02^[a].
In the case of `OC(Cc1ccncc1Cl)(Cn1cncn1)C1(c2ccccc2)CC1` (stereo not shown) [XXI-83], the LogP is reported as 2.23^[a].
For `OC(Cc1ccncc1C(F)(F)F)(Cn1cncn1)C1(Cl)CC1` (stereo not shown) [XXI-86], the LogP was 2.08^[a].
With `OC(Cc1cncc(Oc2ccc(Cl)cc2)n1)(Cn1cncn1)C1(Cl)CC1` (racemic) [XXI-61] the LogP was 2.88^[a].
With `Cc1cccc(CC(O)(Cn2cncn2)C2(Cl)CC2)n1` (racemic) [XXI-53] the LogP was 0.52^[a].
With `OC(Cc1nc(Cl)ccc1Cl)(Cn1cncn1)C1(Cl)CC1` (racemic) [XXI-101] the LogP was 2.73^[a].
In the case of `CC(C)CCC(O)(Cc1ccncc1Cl)Cn1cncn1` (racemic) [XXI-128], the LogP is reported as 2.00^[a].
For `OC(Cc1cccc(Cl)c1)(Cc1ccnc(Cl)c1)Cn1cncn1` (racemic) [XXI-42], the LogP was 2.42^[a].
For `CC(CF)(CF)C(O)(Cc1cc(Cl)ncc1F)Cn1cncn1` (racemic) [XXI-49], the LogP was 1.89^[a].
For `CC(C)(C)C(O)(Cc1cc(Cl)cc(Cl)n1)Cn1ncnc1S` (stereo not shown) [Example I-10], the LogP was 3.07^[a].
For `OC(Cc1ccnnc1Cl)(Cn1cncn1)C1(Cl)CC1` (racemic) [XXI-50], the LogP was 1.31^[a].
For `CCC(C)(C)C(O)(Cc1ccncc1F)Cn1ncnc1S` (stereo not shown) [Example I-17], the LogP was 2.14^[a].
With `CC(C)(C)C(O)(Cc1cnc2ccccc2c1)Cn1ncnc1S` (stereo not shown) [Example I-5] the LogP was 1.58^[a].
With `CCCCc1nc2ccccc2cc1CC(O)(Cn1ncnc1S)C(C)(C)C` (stereo not shown) [Example I-6] the LogP was 1.88^[a].
For `CC(C)(C)C(O)(Cc1cc(Cl)ccn1)Cn1cncn1` (racemic) [XXI-119], the LogP was 1.87^[a].
For `CCC(C)(C)C(O)(Cc1ccncc1F)Cn1cncn1` (racemic) [XXI-104], the LogP was 1.73^[a].
In the case of `CC(C)(C)C(O)(Cc1cnc2ccccc2c1)Cn1cncn1` (stereo not shown) [XXI-8], the LogP is reported as 1.18^[a].
For `CC(C)(C)C(O)(Cc1cnccn1)Cn1cncn1` (racemic) [XXI-118], the LogP was 1.39^[a].
In the case of `CC(C)(C)C(O)(Cc1cccnc1Cl)Cn1ncnc1S` (stereo not shown) [Example I-1], the LogP is reported as 2.31^[a].
With `CC(C)(C)C(O)(Cc1ccc(Cl)c(Cl)n1)Cn1cncn1` (racemic) [XXI-109] the LogP was 2.78^[a].
In the case of `OC(CCl)(Cc1cc(Cl)nc(Cl)c1)C1(Cl)CC1` (stereo not shown) [XV-1], the LogP is reported as 3.85^[a].
With `OC(Cc1cc(Cl)ncc1F)(Cn1cncn1)c1cccnc1Cl` (racemic) [XXI-48] the LogP was 1.57^[a].
For `CC(C)(C)C(O)(Cc1ccnc(Cl)c1F)Cn1cncn1` (racemic) [XXI-124], the LogP was 2.16^[a].
With `CC(C)(F)C(O)(Cc1ccncc1Cl)Cn1cncn1` (stereo not shown) [XXI-81] the LogP was 1.20^[a].
With `OC(Cc1ccncc1F)(Cn1ncnc1S)C1(F)CC1` (stereo not shown) [Example I-21] the LogP was 1.29^[a].
For `CC1(C(O)(Cc2ccncc2Cl)Cn2cncn2)CC1` (racemic) [XXI-54], the LogP was 1.57^[a].
In the case of `OC(Cc1ccc(F)cc1)(Cc1ccncc1Cl)Cn1cncn1` (stereo not shown) [XXI-80], the LogP is reported as 1.93^[a].
With `OC(Cc1cc(Cl)nnc1Cl)(Cn1cncn1)C1(Cl)CC1` (racemic) [XXI-51] the LogP was 1.92^[a].
For `CCC(C)(C)C(O)(Cc1ccncc1Cl)Cn1cncn1` (stereo not shown) [XXI-12], the LogP was 2.13^[a].
With `CC(C)(C)C(O)(Cc1cc(Cl)nc(Cl)c1)Cn1cncn1` (racemic) [XXI-106] the LogP was 2.64^[a].
For `CC(C)(C)C(O)(Cc1ccnc(Cl)c1)Cn1cncn1` (racemic) [XXI-112], the LogP was 1.93^[a].
In the case of `Cc1cccc(CC(O)(Cn2cncn2)C(C)(C)C)n1` (racemic) [XXI-120], the LogP is reported as 0.63^[a].

System: Pyrenophora teres
Experiment: In vivo preventive test on Pyrenophora teres (net blotch on barley)
Conditions: 500 ppm of active ingredient; barley plants, preventive spray; evaluated 14 days after inoculation
Procedure: as §1, with “barley” for “gherkin”, “Pyrenophora teres” for “Botrytis cinerea”
In the case of `CCC(C)(C)C(O)(Cc1ccncc1F)Cn1ncnc1S` (stereo not shown) [Example I-17], the biological efficacy is reported as at least 90%.
